pIC50: −log10 of the molar value. Activity calls are given as the source filed them. The rule behind the calls is not given here.
Tests used:
[1] = biological target: T1, Serine/threonine-protein kinase Chk1 (Homo sapiens, UniProt O14757)
T1 sequence (O14757 whole entry): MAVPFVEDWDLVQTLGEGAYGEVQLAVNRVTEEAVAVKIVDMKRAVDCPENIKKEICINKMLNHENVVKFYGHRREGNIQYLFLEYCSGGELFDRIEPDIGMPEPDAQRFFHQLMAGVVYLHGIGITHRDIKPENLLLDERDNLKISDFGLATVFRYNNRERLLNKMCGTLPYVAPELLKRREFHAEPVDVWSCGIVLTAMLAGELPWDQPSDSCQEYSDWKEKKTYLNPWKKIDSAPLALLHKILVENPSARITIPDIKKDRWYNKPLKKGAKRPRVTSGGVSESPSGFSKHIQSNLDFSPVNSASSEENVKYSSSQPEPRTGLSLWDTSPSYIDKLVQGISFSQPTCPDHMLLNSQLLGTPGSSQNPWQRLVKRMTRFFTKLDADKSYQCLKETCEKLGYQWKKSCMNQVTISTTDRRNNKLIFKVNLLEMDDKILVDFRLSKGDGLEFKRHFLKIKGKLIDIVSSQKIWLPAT
Description: Inhibition of CHK1 assessed as inhibition of substrate phosphorylation using fluorescent peptide substrate by microplate reader assay

OVCAR-5 = test: Growth inhibition of human OVCAR5 cells after 48 hrs by SRB assay; type: functional; settings: OVCAR-5, 48 h
LOX IMVI = test: Growth inhibition of human LOXIMVI cells after 48 hrs by SRB assay; type: functional
SK-OV-3 = test: Growth inhibition of human SKOV3 cells after 48 hrs by SRB assay; type: functional; settings: SK-OV-3, 48 h
SW-620 = test: Growth inhibition of human SW620 cells after 48 hrs by SRB assay; type: functional; settings: SW-620, 48 h
HOP-92 = test: Growth inhibition of human HOP92 cells after 48 hrs by SRB assay; type: functional; settings: HOP-92, 48 h
RPMI-8226 = test: Growth inhibition of human RPMI8226 cells after 48 hrs by SRB assay; type: functional; settings: RPMI-8226, 48 h
[2] = biological target: T2, Serine/threonine-protein kinase Chk2 (Homo sapiens, UniProt O96017)
Description: Inhibition of CHK2 assessed as inhibition of substrate phosphorylation using fluorescent peptide substrate by microplate reader assay

NCI/ADR-RES = test: Growth inhibition of human NCI/ADR-RES cells after 48 hrs by SRB assay; type: functional
CCRF-CEM = test: Growth inhibition of human CCRF-CEM cells after 48 hrs by SRB assay; type: functional
DU-145 = test: Growth inhibition of human DU145 cells after 48 hrs by SRB assay; type: functional; settings: DU-145, 48 h
UO-31 = test: Growth inhibition of human UO31 cells after 48 hrs by SRB assay; type: functional; settings: UO-31, 48 h
SNB-75 = test: Growth inhibition of human SNB75 cells after 48 hrs by SRB assay; type: functional; settings: SNB-75, 48 h
SF-268 = test: Growth inhibition of human SF268 cells after 48 hrs by SRB assay; type: functional; settings: SF-268, 48 h
MDA-MB-231 = test: Growth inhibition of human MDA-MB-231 cells after 48 hrs by SRB assay; type: functional; settings: MDA-MB-231, 48 h
NCI-H226 = test: Growth inhibition of human NCI-H226 cells after 48 hrs by SRB assay; type: functional; settings: NCI-H226, 48 h
[3] = biological target: T3, Aurora kinase A (Homo sapiens) (UniProt O14965); test: Inhibition of Aurora kinase A assessed as inhibition of substrate phosphorylation using fluorescent peptide substrate up to 100 uM by microplate reader assay
T3 sequence (whole entry): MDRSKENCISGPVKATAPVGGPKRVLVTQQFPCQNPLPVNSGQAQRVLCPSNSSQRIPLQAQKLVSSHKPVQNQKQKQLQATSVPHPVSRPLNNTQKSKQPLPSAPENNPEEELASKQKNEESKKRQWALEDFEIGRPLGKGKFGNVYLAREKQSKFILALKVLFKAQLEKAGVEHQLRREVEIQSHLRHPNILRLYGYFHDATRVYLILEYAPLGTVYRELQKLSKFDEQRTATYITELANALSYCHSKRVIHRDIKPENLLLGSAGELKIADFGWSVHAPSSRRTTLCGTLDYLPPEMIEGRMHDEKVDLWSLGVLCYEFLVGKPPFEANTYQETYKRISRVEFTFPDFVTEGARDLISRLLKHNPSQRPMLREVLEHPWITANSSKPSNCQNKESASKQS

[4] = biological target: T2, Serine/threonine-protein kinase Chk2; remark: listed apart in the source
ACHN = test: Growth inhibition of human ACHN cells after 48 hrs by SRB assay; type: functional
SK-MEL-5 = test: Growth inhibition of human SK-MEL-5 cells after 48 hrs by SRB assay; type: functional; settings: SK-MEL-5, 48 h
TK-10 = test: Growth inhibition of human TK10 cells after 48 hrs by SRB assay; type: functional; settings: TK-10, 48 h
SK-MEL-28 = test: Growth inhibition of human SK-MEL-28 cells after 48 hrs by SRB assay; type: functional; settings: SK-MEL-28, 48 h
OVCAR-3 = test: Growth inhibition of human OVCAR3 cells after 48 hrs by SRB assay; type: functional; settings: OVCAR-3, 48 h
MDA-MB-468 = test: Growth inhibition of human MDA-MB-468 cells after 48 hrs by SRB assay; type: functional; settings: MDA-MB-468, 48 h
EKVX = test: Growth inhibition of human EKVX cells after 48 hrs by SRB assay; type: functional
MDA-MB-435 = test: Growth inhibition of human MDA-MB-435 cells after 48 hrs by SRB assay; type: functional; settings: MDA-MB-435, 48 h
[5] = read-out: pLC50 (the source's name) (converted)

T2 sequence (O96017 whole entry): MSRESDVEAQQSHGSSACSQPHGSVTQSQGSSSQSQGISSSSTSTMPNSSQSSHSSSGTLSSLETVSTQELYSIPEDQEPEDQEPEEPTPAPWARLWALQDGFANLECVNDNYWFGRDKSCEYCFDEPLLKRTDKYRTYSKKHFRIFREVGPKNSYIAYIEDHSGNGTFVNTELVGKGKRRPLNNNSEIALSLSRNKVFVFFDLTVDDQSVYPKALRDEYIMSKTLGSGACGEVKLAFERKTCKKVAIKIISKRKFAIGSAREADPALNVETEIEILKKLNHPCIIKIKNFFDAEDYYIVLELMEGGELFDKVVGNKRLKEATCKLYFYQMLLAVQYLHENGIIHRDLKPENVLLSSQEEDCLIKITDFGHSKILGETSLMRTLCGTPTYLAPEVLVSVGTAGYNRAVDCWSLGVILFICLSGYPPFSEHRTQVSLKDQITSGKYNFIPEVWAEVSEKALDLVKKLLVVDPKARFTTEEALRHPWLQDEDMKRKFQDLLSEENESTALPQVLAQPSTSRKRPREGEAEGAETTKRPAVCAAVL

N=C(N)N/N=C\c1c(-c2ccc([N+](=O)[O-])cc2)nc2sc(Br)cn12 was tested, and the pIC50 [1] was under 4.00, the GI50 (OVCAR-5) was 186 nM and the CC50 (OVCAR-5; [5]) was 851 nM. The TGI (OVCAR-5; read-out: pTGI (converted)) was 398 nM, the GI50 (LOX IMVI) was 191 nM and the TGI (LOX IMVI; read-out: pTGI (converted)) was 417 nM. For the same molecule, the GI50 (SK-OV-3) was 148 nM, the CC50 (SK-OV-3; [5]) was 5620 nM and the TGI (SK-OV-3; read-out: pTGI (converted)) was 4470 nM. The GI50 (SW-620) was 182 nM, the CC50 (SW-620; [5]) was 891 nM and the TGI (SW-620; read-out: pTGI (converted)) was 407 nM. For the same molecule, the GI50 (HOP-92) was 676 nM, the CC50 (HOP-92; [5]) was 5130 nM and the TGI (HOP-92; read-out: pTGI (converted)) was 2630 nM. For the same molecule, the GI50 (RPMI-8226) was 178 nM, the TGI (RPMI-8226; read-out: pTGI (converted)) was 417 nM and the pIC50 [2] was 4.05. For the same molecule, the GI50 (NCI/ADR-RES) was 219 nM, the CC50 (NCI/ADR-RES; [5]) was 3550 nM and the TGI (NCI/ADR-RES; read-out: pTGI (converted)) was 891 nM. The GI50 (CCRF-CEM) was 102 nM, the CC50 (CCRF-CEM; [5]) was over 100000 nM and the GI50 (DU-145) was 200 nM. For the same molecule, the CC50 (DU-145; [5]) was 813 nM, the TGI (DU-145; read-out: pTGI (converted)) was 398 nM and the GI50 (UO-31) was 174 nM. The CC50 (UO-31; [5]) was 676 nM, the TGI (UO-31; read-out: pTGI (converted)) was 355 nM and the GI50 (SNB-75) was 204 nM. It also gave a CC50 (SNB-75; [5]) of 1290 nM, a TGI (SNB-75; read-out: pTGI (converted)) of 4680 nM and a GI50 (SF-268) of 219 nM. The TGI (SF-268; read-out: pTGI (converted)) was 447 nM, the GI50 (MDA-MB-231) was 275 nM and the CC50 (MDA-MB-231; [5]) was 3890 nM. The TGI (MDA-MB-231; read-out: pTGI (converted)) was 851 nM, the GI50 (NCI-H226) was 1860 nM and the CC50 (NCI-H226; [5]) was over 100000 nM. For the same molecule, the TGI (NCI-H226; read-out: pTGI (converted)) was 4470 nM, the inhibition [3] was “inactive” and the pIC50 [4] was 5.71. For the same molecule, the GI50 (ACHN) was 295 nM, the CC50 (ACHN; [5]) was 5370 nM and the TGI (ACHN; read-out: pTGI (converted)) was 871 nM. The GI50 (SK-MEL-5) was 490 nM, the CC50 (SK-MEL-5; [5]) was 5370 nM and the TGI (SK-MEL-5; read-out: pTGI (converted)) was 1950 nM. For the same molecule, the GI50 (TK-10) was 269 nM, the CC50 (TK-10; [5]) was 4470 nM and the TGI (TK-10; read-out: pTGI (converted)) was 1100 nM. It also gave a GI50 (SK-MEL-28) of 191 nM, a CC50 (SK-MEL-28; [5]) of 676 nM and a TGI (SK-MEL-28; read-out: pTGI (converted)) of 363 nM. For the same molecule, the GI50 (OVCAR-3) was 204 nM, the CC50 (OVCAR-3; [5]) was 724 nM and the TGI (OVCAR-3; read-out: pTGI (converted)) was 380 nM. For the same molecule, the GI50 (MDA-MB-468) was 158 nM, the CC50 (MDA-MB-468; [5]) was 646 nM and the TGI (MDA-MB-468; read-out: pTGI (converted)) was 3240 nM. The GI50 (EKVX) was 1070 nM, the CC50 (EKVX; [5]) was 7410 nM and the TGI (EKVX; read-out: pTGI (converted)) was 4470 nM. The GI50 (MDA-MB-435) was 251 nM, the CC50 (MDA-MB-435; [5]) was 5370 nM and the TGI (MDA-MB-435; read-out: pTGI (converted)) was 7410 nM.

From ChEMBL document CHEMBL1909514, “Imidazo[2,1-b]thiazole guanylhydrazones as RSK2 inhibitors” (Eur J Med Chem, 2011)
